From PMC10108392, “Rimonabant-Based Compounds Bearing Hydrophobic Amino Acid Derivatives as Cannabinoid Receptor Subtype 1 Ligands” (ACS Medicinal Chemistry Letters, 2023)
Entries after “also recorded” stand apart in the source; their conditions may differ.

Tests used:
[1] = target: T1, CB1R (Rattus norvegicus, UniProt P20272); assay: Ligand stimulated [35S]GTPγS binding assay in rat brain membranes; assay type: biochemical; conditions: rat brain membranes
T1 construct: Crude membrane fractions were prepared from the brain; from tissue; host or cells: Wistar rat whole brain, crude membrane fraction
Description: Our novel chemical compounds were tested in vitro for their binding ability, efficacy, and potency on CB1R in rat brain membrane homogenate (Table 2 and SI, Figure S1). CB1Rs are the most abundant G-protein coupled receptors in the rodent and mammalian brain; therefore, this is an appropriate model to characterize our ligands in a more physiological system.
In Vitro Biological Assays
Preparation of Brain Membrane Homogenates
Wistar rats were locally bred and handled according to the EU Directive 2010/63/EU and to the Regulations on Animal Protection (40/2013. (II. 14.) Korm. r.) of Hungary. Crude membrane fractions were prepared from the brain. Brains were quickly removed from the euthanized rats and directly put in an ice-cold 50 mM Tris-HCl buffer (pH 7.4). The collected tissue was then homogenized in 30 volumes (v/w) of an ice-cold buffer with a Braun Teflon-glass homogenizer at the highest rpm. The homogenate was centrifuged at 20,000 × g for 25 min, and the resulting pellet was suspended in the same volume of a cold buffer followed by incubation at 37 °C for 30 min to remove endogenous ligands. Centrifugation was then repeated. The final pellets were taken up in five volumes of a 50 mM Tris-HCl (pH 7.4) buffer containing 0.32 M sucrose and stored at -80 °C. Prior to the experiment, aliquots were thawed and centrifuged at 20,000 ×g for 25 min and then they were resuspended in 50 mM Tris-HCl (pH 7.4), homogenized with a Douncer, followed by the determination of the protein concentration by the method of Bradford. The membrane suspensions were immediately used either in radioligand binding experiments or in [35S]GTPγS functional assays. […]
was terminated by diluting the samples with an ice-cold wash buffer (50 mM of Tris-HCl, 2.5 mM of EGTA, 5 mM of MgCl2, 0.5% fatty acid free BSA, pH 7.4), followed by repeated washing and rapid filtration through Whatman GF/B glass fiber filters (Whatman Ltd., Maidstone, UK) pre-soaked with 0.1% polyethyleneimine (30 min before the filtration). Filtration was performed with a 24-well Brandel Cell Harvester (Gaithersburg, MD, USA). Filters were air-dried and immersed into Ultima Gold MV scintillation cocktail, and then radioactivity was measured with a TRI-CARB 2100TR liquid scintillation analyzer (Packard, Perkin Elmer, Waltham, MA, USA).
Ligand Stimulated [35S]GTPγS Binding Assay
Rat brain membranes (30 µg protein/tube), prepared as described above, were incubated with 0.05 nM of […]
mM of NaCl, 3 mM of MgCl2 and 1 mM of EGTA in a 50 mM Tris-HCl buffer (pH 7.4) for 60 min at 30 °C. Basal [35S]GTPγS binding was measured in the absence of ligands and set as 100%. Nonspecific […]
binding was determined by the addition of 10 µM unlabelled GTPγS and subtracted from total binding.
Incubation, filtration and radioactivity measurements of the samples were carried out as described above. […]
All […]
data and curves were analyzed by GraphPad Prism 5.0 (San Diego, CA, USA).

[2] = tested on: mice; assay: Hot plate test; assay type: in vivo, mouse; conditions: 10 μg/10 μL i.c.v., 15-120 min
Text: In Vivo Biological Assays
The international and national law and policies approved by Italian Ministry of Health were used to comply with all animal care and experimental procedures. Animal studies were advised in compliance with the ARRIVE guidelines and with the recommendations made by EU Directive 2010/63/EU for animal experiments and the Basel declaration including the 3Rs concept. CD-1 male mice (10-14 weeks of age, 25-30 g of weight) were bought from Charles River (Milan, Italy). […]
The test was carried out as previously described. […] Mice were transferred into transparent and individual plastic cages with thick white paper lining the bottom and access to a pre-measured amount of their regular lab chow (2 gr) for the 1-h test. […] The amount of food left in the trial cage, including crumbs, was measured, and the amount consumed was calculated. […]
Thermal nociception (hot-plate test) was assessed with a commercially available apparatus consisting of a metal plate 25x25 cm (Ugo Basile, Italy) heated to a constant temperature of 55.0 ± 0.1 °C, on which a plastic cylinder (20 cm diameter, 18 cm high) was placed. The time of latency (s) was recorded from the moment the animal was placed in the cylinder on the hot plate until it licked its paws or jumped; the cut-off time was 60 s. […] The time course of latency was then determined at 15, 30, 45, 60, 90 and 120 min after compound treatment. […]

[3] = tested on: mice; assay: Zymosan-induced paw edema; assay type: in vivo, mouse
Description: Drugs were administered s.c. in the dorsal surface of the right hind paw at the dose of 100 μg/20 μL, 15 min before zymosan. […]
testing. […] Then, the compounds were
Compounds were prepared by freshly diluting
Then, these solutions were injected for
The total time the animal spent licking or biting its paw was calculated.
Then, paw edema was calculated as formerly
Paw volume was quantified using a
Data Analysis and Statistics
Statistically significant differences between
Data were considered statistically
The data and statistical analyses respected the recommendations on experimental design and analysis.

T1 sequence (P20272 whole entry): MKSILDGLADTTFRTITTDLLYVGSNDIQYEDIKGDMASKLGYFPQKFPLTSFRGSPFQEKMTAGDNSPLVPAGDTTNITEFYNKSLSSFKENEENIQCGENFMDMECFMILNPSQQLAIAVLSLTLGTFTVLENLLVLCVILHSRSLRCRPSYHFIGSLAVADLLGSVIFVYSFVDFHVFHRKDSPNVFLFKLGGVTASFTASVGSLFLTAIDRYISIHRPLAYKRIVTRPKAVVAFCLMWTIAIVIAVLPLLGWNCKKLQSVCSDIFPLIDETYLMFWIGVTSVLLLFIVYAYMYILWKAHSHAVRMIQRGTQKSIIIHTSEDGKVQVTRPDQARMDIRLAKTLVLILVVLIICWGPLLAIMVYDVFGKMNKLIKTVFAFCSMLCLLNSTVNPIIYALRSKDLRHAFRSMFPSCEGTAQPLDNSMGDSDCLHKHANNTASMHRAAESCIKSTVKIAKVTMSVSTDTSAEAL

With `CNC(=O)[C@@H](NC(=O)c1nn(-c2ccc(Cl)cc2)c(-n2cccc2)c1C)C(C)(C)C` [Compound 34, RS2691-tLeu-NHCH3] the “CB1R functional profile (agonist / antagonist / inverse agonist)” value ([1]; from [35S]GTPγS binding) was “agonist”, the EC50 ([1]; ± SEM, read-out: [35S]GTPγS stimulation EC50) was 46 ± 4.1 nM and the “anti-nociceptive effect in hot plate test (%MPE)” value [2] was “strong and long-lasting anti-nociceptive effect; also recorded: more potent than that of the reference compound”. The “anti-inflammatory effect on zymosan-induced paw volume increase” value ([3]; 100 μg/20 μL s.c., 15 min before zymosan) was “significantly reduce paw volume increase induced by zymosan from 1 to 4 h; also recorded: reduced the paw volume increase from 1 to 4 h” and the “percentage of paw volume in zymosan-induced hindlimb edema” value ([3]; s.c. injection, for 24 h) was “below 75%”.
